Experimental data published in US10052317B2, “Method for treating or preventing hot flushes” (Imperial Innovations Limited, priority 2013, dated 2018).
*1 amine or outer side, *2 acyl side, *3 side chain or, on linkers, in order; H or OH if unused. Where a SMILES comes first, the peptide text is derived from it. [ ]: non-standard residue; d: D form. NMeF = CN[C@@H](Cc1ccccc1)C(=O)O; Suc = O=C(CCC(=O)[*:2])[*:1]

Key:
NKR3 = target: T1, NKR3 (Homo sapiens, UniProt P29371); settings: literature (Spooren 2006; Griebel 2012; Elmore 2011); cited from earlier work
T1 sequence (P29371 1-465): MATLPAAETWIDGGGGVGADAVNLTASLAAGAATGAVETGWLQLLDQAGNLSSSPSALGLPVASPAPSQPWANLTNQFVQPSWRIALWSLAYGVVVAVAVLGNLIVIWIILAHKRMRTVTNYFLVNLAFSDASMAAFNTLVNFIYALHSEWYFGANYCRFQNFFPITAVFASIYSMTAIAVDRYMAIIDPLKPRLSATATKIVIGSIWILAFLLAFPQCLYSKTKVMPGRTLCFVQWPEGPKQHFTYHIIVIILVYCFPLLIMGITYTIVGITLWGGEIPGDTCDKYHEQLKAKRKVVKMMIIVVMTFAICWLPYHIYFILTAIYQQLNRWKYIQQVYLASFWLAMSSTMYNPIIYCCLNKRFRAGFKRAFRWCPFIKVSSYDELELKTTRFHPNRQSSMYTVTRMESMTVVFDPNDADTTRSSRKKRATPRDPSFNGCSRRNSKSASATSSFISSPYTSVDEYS

ovariectomised rats = settings: Dacks et al. 2011; cited from earlier work
[1] = test system: healthy female volunteers; assay: Symptom assessment study during 30-min iv infusion of NKB to healthy women; type: in vivo, human; settings: 5.12 nmol/kg/min iv for 30 min
Text: (§1) Five healthy female volunteers participated in the study (mean age 37.8±1.7y; mean body mass index 21.9±0.7 kg/m2), following ethical approval (reference: 10/H0707/68) and written consent, in accordance with The Declaration of Helsinki. Participants had no medical problems, were not on any regular medication and had regular menstrual cycles. Participants attended in the mornings and during the follicular phase of their menstrual cycle to minimise physiological changes in body temperature occurring during sleep and associated with ovulation (1) (Day of menstrual cycle: 8.0±0.9)
(§2) Human sequence neurokinin B was obtained and used as described above.
Participants were admitted in the morning to the Clinical Investigation Unit between days 3 and 10 of their menstrual cycle, and asked to lay supine for the 180 minute study duration (FIG. 2). A cannula was inserted into a large forearm vein and NKB (5.12 nmol/kg/min) was administered by intravenous (iv) infusion for 30 min commencing at t=90 min. This dose of NKB was selected as it was the maximal dose that was well-tolerated dose experiment 1, above. NKB was dissolved in saline containing gelofusin (5% vol/vol) (B. Braun Medical, Sheffield, UK) to minimize peptide adsorption (Kraegen E W, Lazarus L, Meler H, Campbell L, Chia Y O, Br Med J (1974), 3:464-466). Participants (but not investigators) were blinded as to the identity of the infusion (NKB or vehicle, however all participants received NKB). Participants were informed before the study that they may experience body sensations or symptoms and they were asked to report these in real time during the study. Participants were not specifically informed that they may experience ‘hot flush’ symptoms so as to minimise reporting bias.
Data are presented as mean±standard error of mean (SEM). Means were compared using two-tailed paired t-tests. p<0.05 was considered statistically significant.

healthy female subjects = assay: 180-min intravenous infusion of NKB to healthy women, hot flush symptom diary; type: in vivo, human
Description: Eight healthy female subjects participated in the study, following ethical approval (reference: 10/H0707/68) and written consent, in accordance with The Declaration of Helsinki. All subjects had regular periods. No subjects had any history of hot flushes, deficient levels of sex hormones, or were receiving any regular medications.
as §2
[…] Continuous cardiac monitoring was performed. Heart rate, blood pressure, and adverse symptoms were recorded at regular intervals. Participants were asked to complete a symptom diary in order to measure subjective frequency and problem rating of hot flushes during each study visit. All subjects also completed a questionnaire at the end of each study visit to summarise the symptoms that they experienced that day. Data was analysed by an investigator in a blinded manner.
Data are presented as mean±standard error of mean (SEM). Multiple means were compared using one-way ANOVA with Dunnett's post-hoc test. Pairs of means were compared using paired two-tailed t-tests.

healthy male subjects = assay: Dose-finding study with 90-min intravenous infusion of NKB to healthy men; type: in vivo, human
Text: Human sequence neurokinin B was synthesised by Bachem Holding AG (Bubendorf, Switzerland), and purified by reverse-phase high performance liquid chromatography (HPLC). Electrospray mass spectroscopy and amino acid analysis confirmed identity of the peptide (lot:3007511). The Limulus amoebocyte lysate test detected no endotoxin (Associates of Cape Cod, Liverpool, UK), and bacterial culture was sterile (Department of Microbiology, Hammersmith Hospital, London, UK) in samples of neurokinin B peptide. Vials of freeze-dried neurokinin B were stored at −20° C. and reconstituted in 0.9% saline.
23 healthy male subjects participated in the study (mean age of 23 subjects: 29.0±1.3 years; mean body mass index of 23 subjects: 23.3±0.3 kg/m2), following ethical approval (reference:10/H0707/68) and written consent, in accordance with The Declaration of Helsinki. No subjects had any history of hot flushes, deficient levels of sex hormones, or were receiving any regular medications.
Studies were performed in the Clinical Investigation Unit, during which subjects asked to lay supine. This study was blinded to subjects but not investigators. NKB was dissolved in a vehicle consisting of saline containing Gelofusin (5% vol/vol) (B. Braun Medical, Sheffield, UK) to minimize peptide adsorption. […] Heart rate, blood pressure, and adverse symptoms were recorded at regular intervals. […]

[2] = test system: healthy female volunteers; assay: Double-blinded placebo-controlled physiological assessment study during iv infusion of NKB and vehicle to healthy women; type: in vivo, human; settings: for mean HR / mean skin temperature by skin probe / mean skin temperature by thermal imaging camera / mean MAP: NKB infusion
Text: as §1, with “Ten” for “Five”, “35.3±1.3y;” for “37.8±1.7y;”, “22.1±0.7” for “21.9±0.7”, “5.9±0.6)” for “8.0±0.9)”
as §2
Having observed in Example 3 that participants reported flushing during NKB infusion, a double-blinded placebo-controlled study was carried out. This was performed in a climate-controlled Clinical Research Unit with ambient temperature 24° C. and humidity 50% as has been established in previous studies to be a suitable environment to investigate menopausal flushing (e.g. de Bakker I P, Everaerd W, Maturitas (1996) 25:87-98; Carpenter J S, Gilchrist J M, Chen K, Gautam S, Freedman R R, Menopause: The Journal of The North American Menopause Society (2004) 11:375-381). Participants were admitted on a morning between days 3 and 10 of their menstrual cycle, and asked to lay supine for the 270 minute study duration (FIG. 3). A cannula was inserted into a large forearm vein in both arms: one for collection of blood, and the second for vehicle (gelofusin) or NKB infusion. 30 minute iv infusion of either NKB ([…]) or vehicle (equivalent volume) were commenced at t=60 min and t=180 min, by an investigator blinded to the identity of each infusion. Each participant received one NKB infusion and one vehicle infusion, randomised and prepared by an independent investigator. Participants were informed that they could receive any of the following: NKB followed by vehicle; vehicle followed by NKB; NKB twice; vehicle twice. This strategy ensured integrity of blinding, since any symptoms experienced during the first infusion would not allow participants to automatically deduce the identity of the second infusion.
In order to prevent confounding factors which may affect flushing, participants were asked to refrain from hot drinks, caffeine, alcohol and spicy foods for 12 hours preceding the study start and for the duration of the study. All participants wore light cotton standard hospital gowns. All studies commenced between 9.30-10.30 am. Two experienced physicians were in attendance at all times. Symptoms, heart rate, blood pressure, sweating and skin temperature monitoring were performed as detailed below:
Heart Rate (HR) and Mean Arterial Blood Pressure (MAP): HR was recorded minutely for 20 minutes pre-infusion until 20 minutes post-infusion. MAP was recorded at 5 minute intervals (to minimize discomfort) for 20 minutes pre-infusion until 20 minutes post-infusion. At other times HR and MAP were recorded at 10 minute intervals (FIG. 3). MAP (in mmHg) was calculated using the following standard formula: MAP=((2×diastolic BP)+systolic BP)/3.
Skin Temperature: Skin temperature was recorded each minute for 20 minutes pre-infusion until 20 minutes post-infusion and at 10 minute intervals at other times. Skin temperature was measured by skin temperature probe attached to the neck (Mindray, Huntingdon, UK) and by thermal imaging camera (T440Bx, Flir, Wilsonville, USA). Thermal imaging temperature values were determined by in-built software which recorded the highest temperature point in a box constructed to contain the shoulders and head of the participant.
Skin Conductance: Increased skin conductance is an objective marker of sweating which occurs in menopausal flushing. […]

[3] = 5.12 nmol/kg/h iv for 30 min, of the flushing participants
[4] = during flushing symptoms, p<0.05 vs. pre-symptoms
[5] = entire 30 minute NKB infusion period vs vehicle infusion period
[6] = over the entire duration of the infusion

CC(=O)N(C)C1(c2ccccc2)CCN(CCC[C@]2(c3ccc(Cl)c(Cl)c3)CCCN(C(=O)c3ccccc3)C2)CC1 [Osanetant, (R)-N-{{3-[1-Benzoyl-3-(3,4-dichlorophenyl)piperidin-3-yl]prop-1-yl}-4-phenylpiperidin-4-yl}-N-methylacetamine]
selectivity for NKR3 over NKR1 and NKR2 (NKR3): selective for NKR3 over NKR1 and NKR2

CC[C@H](NC(=O)c1c(O)c(-c2ccccc2)nc2ccccc12)c1ccccc1 [Talnetant, 3-hydroxy-2-phenyl-N-(1-phenylpropyl)quinoline-4-carboxamide]
selectivity for NKR3 over NKR1 and NKR2 (NKR3): selective for NKR3 over NKR1 and NKR2

CSCC[C@H](NC(=O)[C@H](CC(C)C)NC(=O)CNC(=O)[C@H](Cc1ccccc1)N(C)C(=O)[C@H](Cc1ccccc1)NC(=O)[C@H](CC(=O)O)NC(=O)CCC(=O)O)C(N)=O [senktide] (Suc-DF[NMeF]GLM-NH2)
core temperature (ovariectomised rats): reduced core temperature

NKB: Human sequence neurokinin B synthesised by Bachem, purified by reverse-phase HPLC; tachykinin peptide, natural ligand for NKR3
participants experiencing flushing who reported a single flushing episode [1]: Three of the four
participants who experienced three flushing episodes [1]: one
participants reporting flushing during NKB infusion ([1]; P<0.05 vs. vehicle): four out of the five
hot flushes experienced (healthy female subjects; healthy women, iv infusion 0.64 nmol/kg/h (lowest dose)): No hot flushes were experienced
healthy women who experienced hot flushes (healthy female subjects; iv infusion 1.28 nmol/kg/h): 1/6
healthy women who experienced hot flushes (healthy female subjects; iv infusion 2.56 nmol/kg/h): 2/7
healthy women who experienced hot flushes (healthy female subjects; iv infusion 5.12 nmol/kg/h (highest dose)): 7/8
mean number of hot flushes per visit (healthy female subjects; iv infusion 5.12 nmol/kg/h, mean±SEM, P<0.01 vs. placebo (0)): 1.13±0.30
time to full resolution of symptoms after administration was discontinued (healthy male subjects; 10.24 nmol/kg/h): ≤ 5 min
reproductive hormone secretion (healthy male subjects; intravenous administration): did not stimulate significant reproductive hormone secretion
onset of first flushing episodes after NKB infusion initiation ([2]; 5.12 nmol/kg/h iv for 30 min): 1 to 12 min
severity of flushing symptoms ([2]; 5.12 nmol/kg/h iv for 30 min): mild to strong
participants who experienced flushing during NKB infusion ([2]; 5.12 nmol/kg/h iv for 30 min, double-blinded): eight out of ten
participants with a single flushing episode [2, 3]: five
participants with three flushing episodes [2, 3]: two
participants with two flushing episodes [2, 3]: one
participants with concordant increases in sternal skin conductance at the time of flushing ([2]; 5.12 nmol/kg/h iv, of the flushing participants): six of the eight
mean HR [2, 4]: 76.2±1.6 bpm
mean skin temperature by skin probe [2, 4]: 34.7±0.3 Celsius
mean skin temperature by thermal imaging camera [2, 4]: 36.8±0.1 Celsius
mean MAP ([2]; during flushing symptoms, p=ns vs. pre-symptoms): 82.5±2.2 mmHg
mean MAP ([2]; pre-symptom period): 83.2±8.6 mmHg
mean skin temperature by skin probe ([2]; pre-symptom period): 34.6±0.2 Celsius
mean skin temperature by thermal imaging camera ([2]; pre-symptom period): 36.7±0.1 Celsius
mean HR ([2]; pre-symptom period, mean±SEM): 70.3±2.1 bpm
change in serum FSH [2, 5]: No significant changes
change in serum LH [2, 5]: No significant changes
change in serum estradiol [2, 5]: No significant changes
overall change in HR, NKB vs vehicle infusion [2, 6]: No overall changes
overall change in mean arterial blood pressure (MAP), NKB vs vehicle infusion [2, 6]: No overall changes
overall change in skin temperature (skin probe or thermal imaging camera), NKB vs vehicle infusion [2, 6]: No overall changes
